The values that follow come from patent publication US20230218618A1, “ADMINISTRATION OF SUMO-ACTIVATING ENZYME INHIBITOR AND ANTI-CD38 ANTIBODIES” (MILLENNIUM PHARMACEUTICALS, INC., priority 2020, published 2023).

The subject of assay [1] is Daudi human Burkitt’s Lymphoma cell line. Kind of assay: Study 1: Daudi xenograft human Burkitt's lymphoma subcutaneous tumor model. It is filed as in vivo, CB17 SCID mice. The settings on record: for GRI%: vs vehicle; for Tumor growth relative to vehicle-treated tumors (pairwise comparison): I-263a 7.5 mg/kg BIW, daratumumab 7.5 mg/kg BIW or both, data up to Day 22, p < 0.001. Here is the method: (§1) Low tumor volumes can cause problems with the data analysis, so all measurements below 25 cubic mm (including 0 values) were excluded from the analysis. After this exclusion step, the tumor volume was assumed to follow an exponential growth model. More specifically, for a given animal and treatment group,
(§2) Pairwise comparisons were performed, where the mean growth rates were compared for various pairs of treatment conditions. The results were summarized using the growth rate inhibition (GRI). Suppose µT and µC are the mean tumor growth rates for the treatment and reference groups, respectively. Define
(§3) Here, µAB, µA, µB, and µControl are the mean growth rates for the combination, drug A, drug B, and control groups, respectively. As before, µv is the mean tumor growth rate for the vehicle group, which in most cases is the same as the control group. The standard error of the synergy score was calculated as the square root of the sum of squared standard errors across the four groups. The degrees of freedom were estimated using the Welch-Satterthwaite equation. A hypothesis test was performed to determine if the synergy score differed from 0. P-values were calculated by dividing the synergy score by its standard error and tested against a t-distribution (two-tailed) with the above-calculated degrees of freedom. A P value of less than 0.05 is statistically significant.
(§4) The combination results can be interpreted as follows. Statistically significant negative synergy scores indicate a synergistic combination (“Syn.”). Statistically significant positive synergy scores indicate a sub-additive combination (“Sub-add.”) when the combination performs better (i.e. has a lower growth rate) than the best performing single agent. Statistically significant positive synergy scores indicate an antagonistic combination (“Antag.”) when the combination performs worse than the best performing single agent. Scores that are not statistically significant should be considered additive (“Add.”).
Daudi is a human Burkitt’s Lymphoma cell line. A Daudi human xenograft tumor model was generated by subcutaneous inoculation with 2.0 […] 10^6 Daudi cells (cell suspension) in 6 weeks old female CB17 SCID mice (Charles River Laboratories, 251 Ballardvale St., Wilmington, MA) in the flank. When the mean tumor volume reached approximately 120 mm^3, the animals were randomized into one vehicle control and three treatment groups (n=8/group). Mice were then dosed with 20% HPβCD or Compound I-263a and/or daratumumab over a 21-day period. Tumor growth and body weight were measured twice per week during the treatment and post-treatment periods, and mice were humanely euthanized once they had reached their humane endpoint.
A 1.725 mg/mL and a 0.862 mg/mL stock solution of I-263a was formulated weekly in 20% HPβCD and administered intravenously (IV) based on an average body weight using a 0.2 mL dosing volume. Final doses I-263a received were 7.5 mg/kg. I-263a was administered on a BIW schedule for 3 weeks (Days 1, 4, 8, 11, 15, and 18). Daratumumab (anti-CD38 antibody) (Myoderm Medical Supplies, 48 E Main St., Norristown, PA 19401) was purchased at the beginning of the study and stored at 4° C. according to manufacturer’s instructions. Final dose daratumumab received was 7.5 mg/kg based on average body weight. Daratumumab was administered intraperitoneally (IP) using a 0.1 mL dosing volume, on a BIW schedule for 3 weeks (Days, 1, 4, 8, 11, 15, and 18).
Tumors were measured twice weekly using Vernier calipers. Tumor volumes were calculated using standard equation: V = W^2 x L/2, where V = volume, W = width, and L = length for the tumor. When mean tumor volumes reached approximately 120 mm^3, mice were randomized into control and treatment groups. Mice were randomized into 4 groups (n=8/group) and dosed with vehicle (20% HPβCD), I-263a, daratumumab, or the combination of I-263a plus daratumumab at doses and schedules described above. […]

Assay [2] relates to LP-1 human multiple myeloma cell line. As to the kind of experiment: Study 3: LP-1 xenograft human multiple myeloma subcutaneous tumor model. It counts as in vivo, CB17 SCID mice. The settings on record: for GRI%: vs vehicle. The procedure: as §1, §2, §3, §4
LP-1 is a human multiple myeloma cell line. A LP-1 human xenograft tumor model was generated by subcutaneous inoculation with […] LP-1 cells (cell suspension) in 7 weeks old female CB17 SCID mice (Charles River Laboratories, 251 Ballardvale St., Wilmington, MA) in the flank. When the mean tumor volume reached approximately 100 mm^3, the animals were randomized into one vehicle control and seven treatment groups (n=8/group). Mice were then dosed with 20% HPβCD or Compound I-263a or daratumumab over a 35-day period. Tumor growth and body weight were measured twice per week during the treatment and post-treatment periods, and mice were humanely euthanized once they had reached their humane endpoint.
A 0.75 mg/mL stock solution of I-263a was formulated weekly in 20% HPβCD and administered IV based on an average body weight using a 0.2 mL dosing volume. Final dose I-263a received was 7.5 mg/kg. I-263a was administered on a BIW schedule for 5 weeks (Days 1, 4, 8, 11, 15, 18, 22, 25, 29 and 33). Daratumumab (anti-CD38 antibody) (Myoderm Medical Supplies, 48 E Main St., Norristown, PA 19401) was purchased at the beginning of the study and stored at 4° C. according to manufacturer’s instructions. Final dose daratumumab received was 2.5 mg/kg, 7.5 mg/kg, and 20 mg/kg based on average body weight. Daratumumab was administered intraperitoneally (IP) using a 0.1 mL dosing volume, on a BIW schedule for 5 weeks (Days 1, 4, 8, 11, 15, 18, 22, 25, 29 and 33).
Tumors were measured twice weekly using Vernier calipers. Tumor volumes were calculated using standard equation: V = W^2 × L/2, where V = volume, W = width, and L = length for the tumor. When mean tumor volumes reached approximately 100 mm^3, mice were randomized into control and treatment groups. Mice were randomized into 8 groups (n=8/group) and dosed with vehicle (20% HPβCD), I-263a, daratumumab, or the combination of I-263a plus daratumumab at doses and schedules as described above. […]

Where [3] appears, read: I-263a 7.5 mg/kg BIW 5 weeks (p < 0.01), daratumumab 20 mg/kg (p < 0.01), I-263a 7.5 mg/kg BIW with daratumumab 2.5, 7.5 or 20 mg/kg (p < 0.001).

Turning to “Daratumumab: immunoglobulin G1 kappa (IgG1κ) human monoclonal antibody against CD38 antigen”, the “Tumor Volume on Day 22 (±SEM)” value in assay [1] (Daratumumab 7.5 mg/kg BIW IP) worked out at 1043.9 ± 159.1. For the same molecule, the GRI% in assay [1] (Daratumumab 7.5 mg/kg BIW IP) is recorded as 29%; in assay [2] (Daratumumab 2.5 mg/kg BIW IP) it was 16%; in assay [2] (Daratumumab 7.5 mg/kg BIW IP) it was 8%; in assay [2] (Daratumumab 20 mg/kg BIW IP), 10%. The “Tumor growth relative to vehicle-treated tumors (pairwise comparison)” value in assay [1] is reported as “tumor growth inhibition”. Further, the figures for the “Tumor volume on Day 17 (± SEM)” value in assay [2] (Daratumumab 2.5 mg/kg BIW IP), in assay [2] (Daratumumab 7.5 mg/kg BIW IP) and in assay [2] (Daratumumab 20 mg/kg BIW IP) were 988.8 ± 183.4, 1204.8 ± 190.1 and 1078 ± 207.7, respectively. The “Tumor growth compared to vehicle treated mice (pairwise comparison)” value in assay [2] (setting [3]) was “significant tumor growth inhibition”; in assay [2] (daratumumab 2.5 mg/kg or 7.5 mg/kg single agent, p > 0.05) it was “not significantly different from vehicle treated mice”.

For `Cc1sc(C(=O)c2cncnc2N[C@@H]2C[C@H](COS(N)(=O)=O)[C@@H](O)C2)cc1[C@@H]1NCCc2ccc(Cl)cc21` [Compound I-263a, [(1R,2S,4R)-4-{[5-({4-[(1R)-7-chloro-1,2,3,4-tetrahydroisoquinolin-1-yl]-5-methyl-2-thienyl}carbonyl)pyrimidin-4-yl]amino}-2-hydroxycyclopentyl]methyl sulfamate], in assay [1] (I-263a 7.5 mg/kg BIW IV), the “Tumor Volume on Day 22 (±SEM)” value is listed as 1509.4 ± 109.1 and the GRI% worked out at 15%. The “Tumor growth relative to vehicle-treated tumors (pairwise comparison)” value in assay [1] is recorded as “tumor growth inhibition”. Moreover, in assay [2] (setting [3]), the “Tumor growth compared to vehicle treated mice (pairwise comparison)” value was “significant tumor growth inhibition”. In assay [2] (I-263a 7.5 mg/kg BIW IV), the “Tumor volume on Day 17 (± SEM)” value is recorded as 1043.3 ± 260.1 and the GRI% is listed as 15%.
